According to the supplement of paper PMC9663587:

Compound: CC(=O)c1c(C)c2cnc(Nc3ccc(N4CCN(CCOCCOCCOCCNC(=O)COc5cccc6c5C(=O)N(C5CCC(=O)NC5=O)C6=O)CC4)cn3)nc2n(C2CCCC2)c1=O [BSJ-03-123]
Assay: increase in dead-cell fraction, 72 h; higher = more death;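 further: breast cancer cell lines in 384-well plates, stained with Hoechst plus LIVE/DEAD far red dye and imaged, cells above an LDR intensity threshold counted dead, Hoechst-negative corpses included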
Conditions: 0.001 µM

Cell Line	increase in dead-cell fraction
BT474	0.0078
BT549	-0.0011
CAL51	-0.0039
CAL120	-0.0001
CAL851	-0.0043

Same assay, conditions: 0.003162 µM

Cell Line	increase in dead-cell fraction
BT474	0.0052
BT549	-0.0008
CAL51	-0.0056
CAL120	0.0019
CAL851	-0.0029

Same assay, conditions: 0.01 µM

Cell Line	increase in dead-cell fraction
BT474	0.0155
BT549	-0.0008
CAL51	-0.004
CAL120	-0.0014
CAL851	-0.0014

Same assay, conditions: 0.03162 µM

Cell Line	increase in dead-cell fraction
BT474	0.004
BT549	0.0023
CAL51	-0.0021
CAL120	-0.0007
CAL851	0.0058

Same assay, conditions: 0.1 µM

Cell Line	increase in dead-cell fraction
BT474	0.0074
BT549	0.0017
CAL51	-0.0017
CAL120	-0.0013
CAL851	0.007

Same assay, conditions: 0.3162 µM

Cell Line	increase in dead-cell fraction
BT474	0.0224
BT549	-0.0023
CAL51	-0.0037
CAL120	0.0033
CAL851	0.0046

Same assay, conditions: 1 µM

Cell Line	increase in dead-cell fraction
BT474	0.0243
BT549	0.0009
CAL51	0.0033
CAL120	0.004
CAL851	0.0134

Same assay, conditions: 3.162 µM

Cell Line	increase in dead-cell fraction
BT474	0.0241
BT549	0.0085
CAL51	0.0021
CAL120	0.0059
CAL851	0.0379

Same assay, conditions: 10 µM

Cell Line	increase in dead-cell fraction
BT474	0.0415
BT549	0.184
CAL51	0.128
CAL120	0.0482
CAL851	0.0921

Compound: CN(C)C(=O)c1cc2cnc(Nc3ccc(N4CCNCC4)cn3)nc2n1C1CCCC1 [LEE011/Ribociclib]
Assay: as above
Conditions: 0.001 µM

Cell Line	increase in dead-cell fraction
BT474	0.0109
BT549	0.0033
CAL51	-0.0032
CAL120	-0.0051
CAL851	-0.003

Same assay, conditions: 0.003162 µM

Cell Line	increase in dead-cell fraction
BT474	0.0057
BT549	-0.0034
CAL51	-0.0038
CAL120	-0.0023
CAL851	0.001

Same assay, conditions: 0.01 µM

Cell Line	increase in dead-cell fraction
BT474	0.0072
BT549	-0.0015
CAL51	-0.0003
CAL120	0.0009
CAL851	0.0024

Same assay, conditions: 0.03162 µM

Cell Line	increase in dead-cell fraction
BT474	0.0158
BT549	-0.0014
CAL51	0.0052
CAL120	-0.0029
CAL851	0

Same assay, conditions: 0.1 µM

Cell Line	increase in dead-cell fraction
BT474	0.0086
BT549	-0.0023
CAL51	0.0083
CAL120	0
CAL851	-0.0008

Same assay, conditions: 0.3162 µM

Cell Line	increase in dead-cell fraction
BT474	0.0122
BT549	-0.0023
CAL51	0.0065
CAL120	0.001
CAL851	-0.0059

Same assay, conditions: 1 µM

Cell Line	increase in dead-cell fraction
BT474	0.0254
BT549	-0.0003
CAL51	0.0053
CAL120	-0.0006
CAL851	0.0038

Same assay, conditions: 3.162 µM

Cell Line	increase in dead-cell fraction
BT474	0.0157
BT549	0.0011
CAL51	0.0086
CAL120	0.0024
CAL851	0.0003

Same assay, conditions: 10 µM

Cell Line	increase in dead-cell fraction
BT474	0.0109
BT549	-0.0008
CAL51	0.0229
CAL120	0.0041
CAL851	-0.0071

Compound: C=CC(=O)Nc1ccc(C(=O)Nc2[nH]nc3c2CN(C(=O)N[C@H](CN(C)C)c2ccccc2)C3(C)C)cc1 [YKL-5-124]
Assay: as above
Conditions: 0.001 µM

Cell Line	increase in dead-cell fraction
BT474	0.0145
BT549	0.0189
CAL51	0.0123
CAL120	0.0168
CAL851	0.0613

Same assay, conditions: 0.003162 µM

Cell Line	increase in dead-cell fraction
BT474	0.0218
BT549	0.0362
CAL51	0.0229
CAL120	0.0283
CAL851	0.0965

Same assay, conditions: 0.01 µM

Cell Line	increase in dead-cell fraction
BT474	0.019
BT549	0.097
CAL51	0.0534
CAL120	0.0348
CAL851	0.0961

Same assay, conditions: 0.03162 µM

Cell Line	increase in dead-cell fraction
BT474	0.0189
BT549	0.158
CAL51	0.0508
CAL120	0.0304
CAL851	0.1

Same assay, conditions: 0.1 µM

Cell Line	increase in dead-cell fraction
BT474	0.0303
BT549	0.169
CAL51	0.0599
CAL120	0.0343
CAL851	0.12

Same assay, conditions: 0.3162 µM

Cell Line	increase in dead-cell fraction
BT474	0.0351
BT549	0.169
CAL51	0.0693
CAL120	0.0427
CAL851	0.15

Same assay, conditions: 1 µM

Cell Line	increase in dead-cell fraction
BT474	0.0209
BT549	0.196
CAL51	0.0723
CAL120	0.0333
CAL851	0.096

Same assay, conditions: 3.162 µM

Cell Line	increase in dead-cell fraction
BT474	0.0235
BT549	0.228
CAL51	0.134
CAL120	0.0461
CAL851	0.12

Same assay, conditions: 10 µM

Cell Line	increase in dead-cell fraction
BT474	0.182
BT549	0.614
CAL51	0.192
CAL120	0.0476
CAL851	0.402

Compound: CN(C)C/C=C/C(=O)Nc1ccc(C(=O)Nc2cccc(Nc3ncc(Cl)c(-c4c[nH]c5ccccc45)n3)c2)cc1 [THZ1]
Assay: as above
Conditions: 0.0001 µM

Cell Line	increase in dead-cell fraction
BT474	-0.0007
BT549	-0.0033
CAL51	-0.0022
CAL120	-0.0036
CAL851	-0.0023

Same assay, conditions: 0.0003162 µM

Cell Line	increase in dead-cell fraction
BT474	-0.0012
BT549	-0.0013
CAL51	-0.0006
CAL120	0.0008
CAL851	-0.0015

Same assay, conditions: 0.001 µM

Cell Line	increase in dead-cell fraction
BT474	-0.0015
BT549	-0.0005
CAL51	-0.0009
CAL120	-0.0008
CAL851	0.0049

Same assay, conditions: 0.003162 µM

Cell Line	increase in dead-cell fraction
BT474	-0.0036
BT549	-0.0025
CAL51	0.0009
CAL120	0.0033
CAL851	0.0027

Same assay, conditions: 0.01 µM

Cell Line	increase in dead-cell fraction
BT474	0.0152
BT549	0.0024
CAL51	0.0002
CAL120	0.0048
CAL851	0.0075

Same assay, conditions: 0.03162 µM

Cell Line	increase in dead-cell fraction
BT474	0.0225
BT549	0.0096
CAL51	0.0038
CAL120	0.0266
CAL851	0.0208

Same assay, conditions: 0.1 µM

Cell Line	increase in dead-cell fraction
BT474	0.175
BT549	0.112
CAL51	0.0149
CAL120	0.0311
CAL851	0.053

Same assay, conditions: 0.3162 µM

Cell Line	increase in dead-cell fraction
BT474	0.221
BT549	0.179
CAL51	0.046
CAL120	0.0265
CAL851	0.123

Same assay, conditions: 1 µM

Cell Line	increase in dead-cell fraction
BT474	0.139
BT549	0.27
CAL51	0.117
CAL120	0.0708
CAL851	0.402

Compound: CN(C)C/C=C/C(=O)Nc1ccc(C(=O)N2CCC[C@@H](Nc3ncc(Cl)c(-c4c[nH]c5ccccc45)n3)C2)cc1 [THZ531]
Assay: as above
Conditions: 0.0001 µM

Cell Line	increase in dead-cell fraction
BT474	-0.0031
BT549	0
CAL51	0.0035
CAL120	0.0032
CAL851	0.0002

Same assay, conditions: 0.0003162 µM

Cell Line	increase in dead-cell fraction
BT474	0.0048
BT549	0
CAL51	0.0008
CAL120	-0.0012
CAL851	0.0044

Same assay, conditions: 0.001 µM

Cell Line	increase in dead-cell fraction
BT474	0.003
BT549	0.0005
CAL51	0.0008
CAL120	-0.0004
CAL851	-0.0008

Same assay, conditions: 0.003162 µM

Cell Line	increase in dead-cell fraction
BT474	-0.0009
BT549	0.0003
CAL51	-0.0007
CAL120	-0.0009
CAL851	0.0011

Same assay, conditions: 0.01 µM

Cell Line	increase in dead-cell fraction
BT474	-0.0036
BT549	-0.0022
CAL51	-0.0017
CAL120	-0.0022
CAL851	0.0061

Same assay, conditions: 0.03162 µM

Cell Line	increase in dead-cell fraction
BT474	0.0037
BT549	0.0026
CAL51	0.0021
CAL120	0.0046
CAL851	0.0125

Same assay, conditions: 0.1 µM

Cell Line	increase in dead-cell fraction
BT474	0.17
BT549	0.0062
CAL51	0.0037
CAL120	0.0275
CAL851	0.0297

Same assay, conditions: 0.3162 µM

Cell Line	increase in dead-cell fraction
BT474	0.413
BT549	0.0485
CAL51	0.019
CAL120	0.0465
CAL851	0.048

Same assay, conditions: 1 µM

Cell Line	increase in dead-cell fraction
BT474	0.229
BT549	0.365
CAL51	0.0391
CAL120	0.0403
CAL851	0.0747

Compound: CN1CC[C@H](c2c(O)cc(O)c3c(=O)cc(-c4ccccc4Cl)oc23)[C@H](O)C1 [Flavopiridol]
Assay: as above
Conditions: 0.0001 µM

Cell Line	increase in dead-cell fraction
BT474	0.0042
BT549	0.0048
CAL51	-0.0023
CAL120	-0.0013
CAL851	-0.0044

Same assay, conditions: 0.0003162 µM

Cell Line	increase in dead-cell fraction
BT474	0.0024
BT549	-0.0007
CAL51	0.0009
CAL120	0.002
CAL851	0.0036

Same assay, conditions: 0.001 µM

Cell Line	increase in dead-cell fraction
BT474	-0.0008
BT549	-0.0015
CAL51	-0.0005
CAL120	0.0027
CAL851	0.0039

Same assay, conditions: 0.003162 µM

Cell Line	increase in dead-cell fraction
BT474	0.0046
BT549	0.0036
CAL51	0.004
CAL120	-0.0004
CAL851	-0.0035

Same assay, conditions: 0.01 µM

Cell Line	increase in dead-cell fraction
BT474	-0.0017
BT549	-0.0014
CAL51	0.0023
CAL120	-0.0008
CAL851	0.0021

Same assay, conditions: 0.03162 µM

Cell Line	increase in dead-cell fraction
BT474	0.003
BT549	0.0045
CAL51	0.006
CAL120	0.0016
CAL851	0.001

Same assay, conditions: 0.1 µM

Cell Line	increase in dead-cell fraction
BT474	0.0067
BT549	0.0204
CAL51	0.011
CAL120	0.0004
CAL851	0.0068

Same assay, conditions: 0.3162 µM

Cell Line	increase in dead-cell fraction
BT474	0.0397
BT549	0.164
CAL51	0.068
CAL120	0.0194
CAL851	0.0514

Same assay, conditions: 1 µM

Cell Line	increase in dead-cell fraction
BT474	0.274
BT549	0.514
CAL51	0.234
CAL120	0.0425
CAL851	0.103
